Measurements published in patent US20230053540A1, “TREATMENT OF LIVER INJURY” (Massachusetts Institute of Technology, priority 2019, published 2023).

Test system: hepatocytes
Test: Seq-Well scRNA-Seq of hepatocytes after APAP overdose (signature scores, DEG vs untreated)
Type: in vivo, mouse

CC(=O)Nc1ccc(O)cc1 [APAP, acetaminophen]
Cp avg_logFC (APAP composite vs UT): 0.4362
Cyb5 avg_logFC (APAP composite vs UT): −0.7102
Cyp4a10 avg_logFC (APAP composite vs UT): 1.135
Cyp4a14 avg_logFC (APAP composite vs UT): 1.704
Fabp1 avg_logFC (APAP composite vs UT): −1.016
Fga avg_logFC (APAP composite vs UT): 0.8285
Fgb avg_logFC (APAP composite vs UT): 0.745
Fgg avg_logFC (APAP composite vs UT): 0.6805
Fgl1 avg_logFC (APAP composite vs UT): 0.8649
Fth1 avg_logFC (APAP composite vs UT): 0.3784
Gclc avg_logFC (APAP composite vs UT): 1.903
Gm13775 avg_logFC (APAP composite vs UT): −1.078
Gm15564 avg_logFC (APAP composite vs UT): 1.821
Gm24601 avg_logFC (APAP composite vs UT): 0.9844
Gm26924 avg_logFC (APAP composite vs UT): 1.419
Gpx1 avg_logFC (APAP composite vs UT): −0.7686
Grip2 avg_logFC (APAP composite vs UT): 0.8779
Hbb-bs avg_logFC (APAP composite vs UT): 2.862
Hilpda avg_logFC (APAP composite vs UT): 0.7786
Hmgcs2 avg_logFC (APAP composite vs UT): 0.6293
Hmox1 avg_logFC (APAP composite vs UT): 1.348
Hrg avg_logFC (APAP composite vs UT): 0.5189
Igfbp4 avg_logFC (APAP composite vs UT): 0.4353
Lars2 avg_logFC (APAP composite vs UT): 1.711
Mat1a avg_logFC (APAP composite vs UT): 1
Mfsd2a avg_logFC (APAP composite vs UT): 0.6661
Mt1 avg_logFC (APAP composite vs UT): 2.388
Mt2 avg_logFC (APAP composite vs UT): 2.063
Mup3 avg_logFC (APAP composite vs UT): −0.8062
Mup5 avg_logFC (APAP composite vs UT): −1.371
Mup6 avg_logFC (APAP composite vs UT): −2.032
Mup7 avg_logFC (APAP composite vs UT): −1.116
Mup9 avg_logFC (APAP composite vs UT): −2.004
Mup11 avg_logFC (APAP composite vs UT): −3.214
Mup12 avg_logFC (APAP composite vs UT): −1.27
Mup15 avg_logFC (APAP composite vs UT): −1.316
Mup16 avg_logFC (APAP composite vs UT): −1.602
Mup17 avg_logFC (APAP composite vs UT): −2.354
Mup18 avg_logFC (APAP composite vs UT): −1.727
Mup19 avg_logFC (APAP composite vs UT): −2.396
Mup21 avg_logFC (APAP composite vs UT): −1.008
Ndrg2 avg_logFC (APAP composite vs UT): 0.4122
Nudt7 avg_logFC (APAP composite vs UT): −1.564
Ppl avg_logFC (APAP composite vs UT): 0.8798
Rbp4 avg_logFC (APAP composite vs UT): 0.3014
Retsat avg_logFC (APAP composite vs UT): 0.6813
S100a8 avg_logFC (APAP composite vs UT): 1.128
S100a9 avg_logFC (APAP composite vs UT): 1.343
Saa1 avg_logFC (APAP composite vs UT): −1.078
Selenbp2 avg_logFC (APAP composite vs UT): −1.19
Sephs2 avg_logFC (APAP composite vs UT): 0.89
Sepp1 avg_logFC (APAP composite vs UT): 0.4486
Serpina1a avg_logFC (APAP composite vs UT): −0.6752
Serpina1e avg_logFC (APAP composite vs UT): −0.662
Serpina1d avg_logFC (APAP composite vs UT): −0.494
Slco1a4 avg_logFC (APAP composite vs UT): 0.5526
Snord118 avg_logFC (APAP composite vs UT): 0.6174
Srxn1 avg_logFC (APAP composite vs UT): 1.878
Sult1a1 avg_logFC (APAP composite vs UT): 0.5605
Tnfrsf12a avg_logFC (APAP composite vs UT): 1.118
Ttpa avg_logFC (APAP composite vs UT): 0.6012
Ttr avg_logFC (APAP composite vs UT): −0.5306
mt-Co1 avg_logFC (APAP composite vs UT): −1.433
mt-Co2 avg_logFC (APAP composite vs UT): −1.397
mt-Cytb avg_logFC (APAP composite vs UT): −1.571
mt-Nd1 avg_logFC (APAP composite vs UT): −1.42
mt-Nd2 avg_logFC (APAP composite vs UT): −1.242
mt-Nd4 avg_logFC (APAP composite vs UT): −1.957
mt-Nd5 avg_logFC (APAP composite vs UT): −1.384
mt-Rnr1 avg_logFC (APAP composite vs UT): −0.4854
mt-Rnr2 avg_logFC (APAP composite vs UT): −0.7783
n-R5-8s1 avg_logFC (APAP composite vs UT): 1.253
1-Mar logFC (APAP vs UT): −0.4778
2-Mar logFC (APAP vs UT): −0.5599
1110008F13Rik logFC (APAP vs UT): −0.4553
1600014C10Rik logFC (APAP vs UT): −0.4982
3110043O21Rik logFC (APAP vs UT): 0.2694
8430408G22Rik logFC (APAP vs UT): −0.5021
AA474408 logFC (APAP vs UT): 0.4364
Aadac logFC (APAP vs UT): −0.62
Abca1 logFC (APAP vs UT): 0.7245
Abhd2 logFC (APAP vs UT): 0.4844
Acox1 logFC (APAP vs UT): 0.2752
Acsl4 logFC (APAP vs UT): 0.3147
Acss2 logFC (APAP vs UT): −0.6201
Adh4 logFC (APAP vs UT): −0.5269
Adh5 logFC (APAP vs UT): −0.4914
Adh6-ps1 logFC (APAP vs UT): −0.4185
Adipor2 logFC (APAP vs UT): −0.4738
Agmat logFC (APAP vs UT): −0.4718
Ak3 logFC (APAP vs UT): 0.289
Akr1c14 logFC (APAP vs UT): −0.5186
Akr1c20 logFC (APAP vs UT): −0.5542
Akr1e1 logFC (APAP vs UT): −0.2582
Alas1 logFC (APAP vs UT): −0.4898
Alb logFC (APAP vs UT): 0.4203
Alcam logFC (APAP vs UT): 0.3238
Aldh1a1 logFC (APAP vs UT): −0.4788
Aldh3a2 logFC (APAP vs UT): −0.8342
Aldh8a1 logFC (APAP vs UT): −0.6837
Aox3 logFC (APAP vs UT): −0.3333
